Experimental data: patent US8101408B2, “Insecticidal extract from legume plants and method of preparing the same” (Her Majesty the Queen in right of Canada, as represented by …, priority 2005, dated 2012)

Columns and labels:
[1] = system: Sitophilus oryzae; assay: Flour disk antifeedant bioassay with rice weevils (food consumption as % of control; EC50/EC90 for feeding reduction); assay type: in vivo; conditions: RPC isolate; 0.8 mg dose, disks from one-half the usual amount of flour (100 mg)
Protocol: The bioactivity of separated fractions was determined primarily by a flour disk antifeedant bioassay with the rice weevil (Sitophilus oryzae), an insect pest of stored products.
A glass column (1.2 cm internal diameter×20.5 cm length) equipped with a solvent reservoir and stopcock was filled with silica gel (Mallinckrodt SilicAR cc-7) using a slurry of the silica gel in chloroform (Merck OmniSolv containing 1% ethanol). The top of the bed was protected with sea sand. C8 powder (130 mg) was applied to the column, after mixing with silica gel, as a 1.25 cm band. Using a slight positive air pressure to maintain reasonable flow rates, the column was eluted with chloroform (75 ml) then with 75 ml volumes of various mixtures of chloroform and methanol followed by pure methanol (Table 1). The column was eluted with more methanol (75 ml) and finally with two additional volumes of methanol (250 ml each). […] A final evaporation was performed with a Savant apparatus (43° C.). The tubes were re-weighed, capped and transferred to the bioassay laboratory. Each sample was dissolved in 70% ethanol (0.5 ml) and 0.2 ml of that solution was added to the wheat flour (200 mg) for preparation of the disks. […] Control disks were prepared with 0.2 ml of 70% ethanol.
A test insecticidal compound is incorporated into flour disks. […] A typical dose in many of the above examples is 1.6 milligram/200 milligram flour. Wheat flour is typically used.
Reduction in feeding activity elicited by the experimental samples was compared to food consumption of untreated controls, obtained by weighing the disks before and after exposure to insects and expressed as percent feeding relative to the control. Bioassay can also include insecticidal measurements (lethality with rice weevil).
Flour disks (ca. 0.1 g/disk) were weighed before and after exposure to the insects. […] Antifeedant activity was determined by expressing consumption of treated disks as a percentage of control disks (70% ethanol). Positive controls using the same C8 extract were run with each bioassay.
The estimate and confidence limits are the values of X where the line Y=Yo crosses the regression line and its upper and lower confidence curves, respectively. The formulae can be expressed in terms of outputs from the regression analysis. Let a and b be the estimates of the intercept and slope, MSE the mean square error, n the number of observations, t the (2-sided) critical value of t with n−2 degrees of freedom, V(b) the variance (standard error squared) of b and D=b^2−t^2V(b)). Then the estimate of X is Xo=(Yo−a)/b and the confidence limits for X are X0+t^2V(b)(Y0− Y)/bD±H where H^2=t^2└D·MSE/n+V(b)(Y0− Y)^2┘/D^2. The interval is not symmetric about Xo. […]

[2] = Stability in solution or on storage judged by TLC, HPLC and mass spectrometry; assay type: physicochemical
Excerpt: Samples containing soyasaponin VI, freshly prepared in 80% ethanol, could be shown to contain intact soyasaponin VI by HPLC/MS with electrospray ionization, by the appearance of the strong quasimolecular ion at mass1069. However, the samples were always contaminated with soyasaponin I (quasimolecular ion at 943).
The peptide of mass 3788 was of particular interest because its molecular weight was the same as that of PA1b described by Higgins et al. (1986). During RPC, the 3788 peptide was found in highest concentrations in the end fractions from silica gel flash chromatography of C8 with chloroform-water-methanol and then methanol as eluent (system 1 isolate).

[3] = system: sugar taste receptor cells of the blowfly; conditions: Ahamed et al., 2000; cited from earlier work

In the case of `CC1=C(O)C(=O)C[C@H](O[C@@H]2CC(C)(C)C[C@H]3C4=CC[C@@H]5[C@@]6(C)CC[C@H](O[C@@H]7O[C@H](C(=O)O)[C@@H](O)[C@H](O)[C@H]7O[C@@H]7O[C@H](CO)[C@H](O)[C@H](O)[C@H]7O[C@@H]7O[C@@H](C)[C@H](O)[C@@H](O)[C@H]7O)[C@](C)(CO)[C@@H]6CC[C@@]5(C)[C@]4(C)CC[C@@]23C)O1` [Soyasaponin VI, soyasaponin VI], the “food consumption in the rice weevil bioassay” value [1] is listed as 80%, the “stability (in words)” value [2] is listed as “somewhat unstable in solution” and the “effect on sugar taste receptor cells (in words)” value [3] is listed as “stimulate the sugar taste receptor cells”.
